Results: paper PMC5877874, “Prenylated phloroglucinols from Hypericum scruglii, an endemic species of Sardinia (Italy), as new dual HIV-1 inhibitors effective on HIV-1 replication” (PLoS ONE, 2018)
Like-named read-outs stand apart in the source and are kept apart here.

How the values were obtained:
[1] = biological target: T1, HIV-1 RT-associated RDDP activity (Human immunodeficiency virus type 1 group M subtype B, UniProt P04585); experiment: RDDP assay (Enz-Check Reverse Transcriptase Assay Kit); format: biochemical; settings: for IC50: concentration required to inhibit the HIV-1 RDDP activity by 50%
T1 construct: His-tagged p66/p51 HIV-1 RT; His tag; made in house; host or cells: Escherichia coli strain M15
Experimental: (§1) His-tagged p66/p51 HIV-1 RT was expressed in Escherichia coli strain M15 as previously described. Full-length IN and LEDGF proteins were expressed in E. coli BL21 (DE3).
The HIV-1 RT-associated RDDP activity was measured using the Enz-Check Reverse Transcriptase Assay Kit (Life technologies, Carls- bad, California, USA), as previously described. The Yonetani-Theorell analysis was performed as previously reported.

[2] = biological target: T2, HIV-1 RT-associated RNase H activity (Human immunodeficiency virus type 1 group M subtype B, UniProt P04585); experiment: RNase H polymerase-independent cleavage assay; format: biochemical; settings: for Inhibition of both HIV-1 RT-associated RNase H and RDDP functions (in words): maximum concentration tested 100 μM; for IC50: concentration required to inhibit the HIV-1 RNase H activity by 50%
T2 construct: His-tagged p66/p51 HIV-1 RT; His tag; made in house; host or cells: Escherichia coli strain M15
Experimental: as §1
The HIV-1 RT-associated RNase H activity was measured in 100 μL reaction volume containing 50 mM Tris–HCl, pH 7.8; 6 mM MgCl2; 1 mM dithiothreitol (DTT); 80 mM KCl; hybrid RNA/DNA (5′-[…]-3′-fluorescein, 5′-[…]-3′-Dabcyl); and 3.8 nM RT. The reaction mixture was incubated for 1 h at 37°C, the reaction was stopped by the addition of EDTA, and products were measured with a Victor 3 (Perkin) at 490/528 nm.

HIV-1 virus NL(AD8) = experiment: Antiviral activity on HIV-1 (AD8) replication in TZM-bl cells (CPRG assay); format: cell-based; settings: for EC50: read-out: EC50, HIV-1 (AD8) replication
Experimental: (§2) The human TZM-bl indicator cell line was obtained from the American Type Culture Collection (Manassas, VA) and maintained at 37°C and 5% CO2 in Dulbecco's modified Eagle's medium (DMEM) containing 10% fetal bovine serum, 50 μg/mLpenicillin, and 50 μg/mL streptomycin. The HIV-1 virus NL(AD8) was titrated as follows: serial 5-fold dilutions of the virus were made in quadruplicate wells in 96-well culture plates, in a total volume of 100 μL of growth medium, for a total of 8 dilution steps. Freshly trypsinized cells (20,000 cells in 100 μL of growth medium containing 75 μg/mL DEAE-dextran) were added to each well, and the plates were incubated at 37°C in a humidified 5% CO2-95% air environment. After 48 h of incubation, the medium was removed and viral infection was quantified using a β-galactosidase (CPRG) assay (Roche). Twenty thousand TZM-bl cells/well were seeded in 96-well plates in complete DMEM supplemented with 30 μg/mL DEAE-dextran (Sigma-Aldrich). Three hundred times the 50% tissue culture infective dose (TCID50)/mL of HIV AD8 strain and seven serial dilutions (range, 40.000 nM to 625 nM) of each compound were added to the cells, as previously described. Vehicle (0.1% dimethyl sulfoxide [DMSO])-treated cells served as a negative control. […] The TZM-bl indicator cell line has an integrated copy of the β-galactosidase gene under control of the HIV-1 promoter. Β-Galactosidase expression, measured by use of a chlorophenol red/β-D-galactopyranoside (CPRG) assay (Roche) in cell lysates 48 h post-infection was used as a marker of HIV infection. The inhibitory curves were fitted by nonlinear regression, allowing for the calculation of the 50% effective concentration (EC50) using the Prism software. To evaluate the cell toxicity of the compounds, the metabolic XTT [2,3-bis-(2-methoxy-4-nitro-5-sulfophenyl)-2H-tetrazolium-5-carboxanilide] test (Sigma-Aldrich) was performed according to the manufacturer's instructions.

[3] = biological target: T3, HIV-1 IN in the presence of LEDGF/p75 (Human immunodeficiency virus type 1 group M subtype B, UniProt P04585); experiment: HTRF LEDGF dependent integrase assay; format: biochemical; settings: for IC50: IN catalytic activities in the presence of LEDGF/p75
T3 construct: Full-length IN and LEDGF proteins were expressed in E. coli BL21 (DE3); made in house; host or cells: E. coli BL21 (DE3)
Experimental: as §1
The IN LEDGF/p75 dependent assay allowed to measure the inhibition of the 3’processing and strand transfer IN reactions in the presence of recombinant LEDGF/p75 protein, as previously described. Briefly, 50 nM IN was preincubated with increasing concentration of compounds for 1 hour at room temperature in reaction buffer containing 20 mM HEPES pH 7.5, 1 mM DTT, 1% Glycerol, 20 mM MgCl2, 0.05% Brij-35 and 0.1 mg/ml BSA. To this mixture, 9 nM DNA donor substrate (5’-[…]-Biotin-3’ annealed with 5’-[…]-Biotin3’) and 50 nM DNA acceptor substrate (5’-Cy5-[…]-3’ annealed with 5’-Cy5- […]-3’) and 50 nM LEDGF/p75 protein were added and incubated at 37°C for 90 minutes.

TZM-bl cells = experiment: Cell toxicity, metabolic XTT test; format: cell-based, human
Experimental: as §2

[4] = Cell toxicity, metabolic XTT test; format: cell-based, human; settings: human; TZM-bl cells, XTT; read-out: CC50, TZM-bl cell viability
Experimental: as §2

[5] = tested on: env-pseudotyped HIV-1 virus (REJO4541 clone 67); format: cell-based; settings: TZM-bl cells, 40-fold EC50 concentration
Experimental: In TOA experiment it is of fundamental importance that only one replication cycle has been completed to avoid confounding effects derived from unwashed viruses after 1 hour of infection. […] 40000 TZM-bl cells/well in a 96-multiwell plate were infected with 1500 X the TCID50 per mL of the env-pseudotyped HIV-1 virus in complete medium supplemented with DEAE-dextran (Sigma–Aldrich, 30 mg/mL). Virus was incubated with cells for 1 h at 4°C, and unbound virus was subsequently removed by extensive and repeated washing with phosphate-buffered saline (PBS) to synchronize the replication. […] After 2 days, viral infection was quantified using a CPRG assay (Roche) and was then normalized to untreated control cells.

[6] = Human immunodeficiency virus 1, TZM-bl, 48 h
[7] = TZM-bl cells, 48 h post-infection

Molecule	IC50 [1] [µM]	Inhibition of both HIV-1 RT-associated RNase H and RDDP functions (in words) [2]	IC50 [2] [µM]	EC50 (HIV-1 virus NL(AD8); [6]) [µM]	IC50 [3] [µM]	EC50 (HIV-1 virus NL(AD8); [7]) [µM]	further results
Oc1cc(O)c(CC(O)C(O)c2ccc(O)c(O)c2)c(O)c1 [Compound 4, 1,3,5-benzentriol 2-[(2S,3R)-3-(3,4-dihydroxylphenyl)-2,3-dihydroxylpropyl]]	92 ± 10	weak inhibition	93 ± 7	> 40	6.4 ± 0.7		
CCOC(=O)C(=O)CC(=O)/C=C/c1cccn1Cc1ccccc1Cl [RDS 1759, reference compound]			7.3 ± 0.1				
Maraviroc [reference compound]						0.07	
3-geranyl-1-(2'-methylpropanoyl)phloroglucinol [Compound 2]	12.3 ± 2.5		4.1 ± 0.1		7.4 ± 0.4	8	CC50 (TZM-bl cells): > 50 µM
O=C(O)c1ccc(O)c(O)c1 [Compound 5, 3,4-dihydroxybenzoic acid]	> 100	inactive	> 100	> 40	> 100		remaining activity at 100 µM ([1]; 100 μM compound, read-out: Percentage of control RDDP activity in the presence of compound): 85%; remaining activity at 100 µM ([2]; 100 μM compound, read-out: Percentage of control RNase H activity in the presence of compound): 100%; remaining activity at 100 µM ([3]; 100 μM compound, in the presence of LEDGF, read-out: Percentage of control IN activity in the presence of compound): 97%; HIV-1 IN inhibition (in words) ([3]; in presence of LEDGF/p75): not active
3-geranyl-1-(2'-methylbutanoyl)phloroglucinol [Compound 1]	25.5 ± 8.8		4.3 ± 0.4		7.3 ± 0.3	3.5	CC50 (TZM-bl cells): > 50 µM
C[C@@H]1O[C@@H](Oc2c(-c3ccc(O)c(O)c3)oc3cc(O)cc(O)c3c2=O)[C@H](O)[C@H](O)[C@H]1O [Compound 6, quercitrin]	9.7 ± 1.4	active in the low micromolar range	6.3 ± 1	> 40	1.6 ± 0.16		Effect on HIV-1 replication (in words) (HIV-1 virus NL(AD8); highest tested concentration, TZM-bl cells): did not exert any effect; Fold more active on HIV-1 IN activity with respect to HIV-1 RNase H function ([3]; IN versus RNase H IC50): 4 fold
C=C(C)C(O)CC/C(C)=C/Cc1c(O)cc(O)c(C(=O)C(C)CC)c1O (stereo not drawn) [Compound 3, 3-(13-hydroxygeranyl)-1-(2'-methylbutanoyl)phloroglucinol]	19.7 ± 3.5		9.1 ± 0.5	3.5	13 ± 1		CC50 [4]: > 50 µM; Time of addition after which antiviral activity is lost [5]: 4–5 hour post-infection
